According to patent US12697326B2, “Methods of treating hepatic encephalopathy” (SALIX PHARMACEUTICALS, INC., priority 2008, dated 2026):

Key:
patients with HE [1] = settings: 6-month study; rifaximin 1200 mg/day, neomycin 3 g/day; 14 days on, 14 days off per month; cited from earlier work
patients with HE [2] = assay: Retrospective chart review of 145 patients with HE, lactulose then rifaximin; type: in vivo, human
Text: Total number of hospitalizations, duration of hospitalizations, HE endpoints, and cost of therapy were compared between the 2 treatment regimens.

[3] = test system: liver transplant patients with HE; assay: Chart review of 39 liver transplant patients with HE Conn scores of 2; type: in vivo, human; settings: 24 lactulose, 15 rifaximin

Molecule | efficacy in patients with HE, rifaximin versus neomycin (patients with HE [1]) | patients with Conn scores of 3 or 4 at end of treatment period (patients with HE [2]) [%] | hospitalizations reported for the group [3]
neomycin | comparable efficacy |  | 
OC[C@H]1O[C@@H](O[C@@H]2[C@@H](CO)OC(O)(CO)[C@H]2O)[C@H](O)[C@@H](O)[C@H]1O (mixture of isomers) [lactulose] |  | 25 | Nineteen
